Source: ChEMBL document CHEMBL4706630, “Modulation of the G-Protein-Coupled Receptor 84 (GPR84) by Agonists and Antagonists” (J Med Chem, 2020)

Tests used:
[1] = biological target: T1, G-protein coupled receptor 84 (Homo sapiens, UniProt Q9NQS5); test: (§1) Antagonist activity at recombinant human N-terminal epitope tagged/eYFP-fused FLAG-tagged GPR84 expressed in Flp-In TREx 293 cells assessed as inhibition of decanoic acid-induced [35S]GTPgammaS binding pre-incubated for 15 mins followed by [35S]GTPgammaS addition and measured after 45 mins by liquid scintillation spectrometry; assay type: functional, cell-based, Flp-In-T-REx-293
T1 sequence (Q9NQS5 whole entry, the tested form may be a part): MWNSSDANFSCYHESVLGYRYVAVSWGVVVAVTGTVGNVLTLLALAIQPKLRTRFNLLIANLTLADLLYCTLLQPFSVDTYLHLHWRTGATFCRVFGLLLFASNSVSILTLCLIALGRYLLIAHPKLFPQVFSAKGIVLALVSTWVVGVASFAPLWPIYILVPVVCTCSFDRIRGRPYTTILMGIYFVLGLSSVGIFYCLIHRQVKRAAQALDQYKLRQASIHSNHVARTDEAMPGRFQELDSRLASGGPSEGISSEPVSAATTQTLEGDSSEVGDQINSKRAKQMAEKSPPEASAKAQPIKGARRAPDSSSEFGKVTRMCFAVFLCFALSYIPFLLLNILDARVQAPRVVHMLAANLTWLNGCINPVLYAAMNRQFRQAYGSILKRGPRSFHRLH

[2] = biological target: T1, G-protein coupled receptor 84; test: as §1, with “embelin-induced” for “decanoic acid-induced”; assay type: functional, cell-based, Flp-In-T-REx-293
[3] = biological target: T1, G-protein coupled receptor 84; test: as §1, with “DIM-induced” for “decanoic acid-induced”; assay type: functional, cell-based, Flp-In-T-REx-293
[4] = biological target: T2, G-protein coupled receptor 84 (Mus musculus, UniProt Q8CIM5); test: Agonist activity at GPR84 in mouse bone-marrow-derived neutrophils assessed as stimulation of [35S]GTPgammaS binding incubated for 60 mins by liquid scintillation spectroscopy; assay type: functional, tissue-based, Neutrophil
T2 sequence (Q8CIM5 whole entry): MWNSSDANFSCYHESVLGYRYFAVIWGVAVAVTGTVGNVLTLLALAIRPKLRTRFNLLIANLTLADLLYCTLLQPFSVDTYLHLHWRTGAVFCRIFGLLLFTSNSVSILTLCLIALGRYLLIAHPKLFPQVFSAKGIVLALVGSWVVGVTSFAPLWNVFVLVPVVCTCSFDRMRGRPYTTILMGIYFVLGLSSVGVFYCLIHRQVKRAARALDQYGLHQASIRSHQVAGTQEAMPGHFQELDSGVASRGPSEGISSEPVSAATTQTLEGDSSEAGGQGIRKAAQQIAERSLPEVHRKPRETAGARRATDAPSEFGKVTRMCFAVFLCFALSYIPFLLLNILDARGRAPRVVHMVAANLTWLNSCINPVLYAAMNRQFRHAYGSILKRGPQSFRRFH

[5] = biological target: T1, G-protein coupled receptor 84; test: Agonist activity at human Gialpha-coupled GPR84 expressed in baculovirus infected sf9 insect cells assessed as induction of [35S]GTPgammaS incubated for 1 hr by liquid scintillation counting method; assay type: functional
[6] = biological target: T1, G-protein coupled receptor 84; test: Agonist activity at human GPR84 expressed in CHO cells assessed as reduction in forskolin-stimulated cAMP production preincubated for 20 mins followed by forskolin stimulation and measured after 20 mins by cAMP assay; assay type: functional, cell-based
[7] = biological target: T1, G-protein coupled receptor 84; test: Agonist activity at human GPR84 expressed in CHO cell membranes assessed as induction of [35S]GTPgammaS incorporation incubated for 1 hr by liquid scintillation counting method; assay type: functional, Cell membrane
[8] = biological target: T1, G-protein coupled receptor 84; test: Antagonist activity at human GPR84 expressed in CHO-K1 cells assessed as reduction in 6-OAU-induced inhibition of forskolin stimulated cAMP production preincubated for 15 mins followed by forskolin and 6-OAU stimulation and measured after 30 mins by luminescence method; assay type: functional, cell-based
[9] = biological target: T1, G-protein coupled receptor 84; test: (§2) Antagonist activity at human Flag-tagged Gialpha-coupled GPR84 expressed in human Flp-In-T-REx-293 cell membrane assessed as reduction in PSB-16671-induced stimulation of [35S]GTPgammaS binding preincubated for 15 mins followed by PSB-16671 addition and subsequent addition of [35S]GTPgammaS measured after 60 mins by liquid scintillation spectroscopy; assay type: functional, cell membranes
[10] = biological target: T2, G-protein coupled receptor 84; test: as §2, with “mouse Galphai2-coupled” for “human Flag-tagged Gialpha-coupled”; assay type: functional, cell membranes
[11] = biological target: T1, G-protein coupled receptor 84; test: (§3) Antagonist activity at GPR84 in LPS-treated human THP-1 cell membrane assessed as reduction in ZQ-16-induced stimulation of [35S]GTPgammaS binding preincubated for 15 mins followed by ZQ-16 addition and subsequent addition of [35S]GTPgammaS measured after 60 mins by liquid scintillation spectroscopy; assay type: functional
[12] = biological target: T1, G-protein coupled receptor 84; test: as §3, with “PSB-16671-induced” for “ZQ-16-induced”, “PSB-16671” for “ZQ-16”; assay type: functional
[13] = biological target: T2, G-protein coupled receptor 84; test: as §2, with “at” for “at human Flag-tagged Gialpha-coupled”, “GPR84” for “GPR84 expressed”, “LPS-treated mouse RAW 264.7” for “human Flp-In-T-REx-293”; assay type: functional, cell membranes, RAW264.7

O=c1nc(OC[C@@H]2COCCO2)cc2n1CCc1cc(COCC3CCOCC3)ccc1-2
IC50 [1]: 168 nM | IC50 [2]: 83 nM | IC50 [3]: 55 nM

Fc1cc(F)c2[nH]cc(Cc3c[nH]c4c(F)cc(F)cc34)c2c1
EC50 [4]: 2880 nM

CCCCCCCCCC(O)CC(=O)O (stereo not given)
EC50 [5]: 13000 nM

CCCCCCCCC(=O)O [NONANOATE]
EC50 [6]: 52300 nM | EC50 [7]: 70200 nM

O=c1nc(OCC2COCCO2)cc2n1CCc1cc(OCc3ccccn3)ccc1-2 (stereo not given)
IC50 [8]: 260 nM

O=c1nc(OCC2COCCO2)cc2n1CCc1cc(C#CCNc3ccccc3)ccc1-2 (stereo not given)
IC50 [1]: 25 nM | IC50 [2]: 22 nM | IC50 [3]: 21 nM | IC50 [9]: 0.9 nM | IC50 [10]: 68 nM | IC50 [11]: 14 nM | IC50 [12]: 4.8 nM | IC50 [13]: 145 nM

CCCCCCSc1nc(O)cc(O)n1
EC50 [4]: 12.9 nM

O=c1nc(OC[C@H]2COCCO2)cc2n1CCc1cc(OCc3noc(C4CC4)n3)ccc1-2
IC50 [1]: 28 nM | IC50 [2]: 14 nM | IC50 [3]: 86 nM
